# Measured values as given in EP2046786B1, “POLYMORPHIC FORMS OF ZIPRASIDONE SULFATES” (KRKA, priority 2006, dated 2008).
# Where a name gives a salt, the structure may show the parent alone.
# Tests used:
# [1] = Water sorption analysis (0 % RH to 95 % RH, 25°C); format: physicochemical; settings: for release of crystal water at 0 % RH: nitrogen flow rate 200 ml/min; for RH at which water sorption started: two 11-step circles from 0 % RH to 95 % RH
# Procedure: An amount of 20 mg of zipasidone hydrogensulfate dihydrate was exposed to a watersorption analysis (Surface Measurement Systems Ltd., London, UK; two complete 11-step circles from 0 % RH to 95 % RH at the temperature 25°C and nitrogen flow rate 200 ml/min; minimal retention time at the step when dm/dt < 0.002% was 10 minutes and maximal 360 minutes) and compared to the same test of Ziprasidone hydrochloride monohydrate.
# [2] = Solubility in water (pH 6.8) + 2 % SDS; format: physicochemical; settings: water + 2 % SDS, aqueous with cosolvent or surfactant or cyclodextrin; water (pH 6.8) + 2 % SDS at room temperature
SMILES,release of crystal water at 0 % RH [1],RH at which water sorption started [1] [% RH],stability to hydratation ([1]; compared with Ziprasidone hydrochloride salt),solubility [2] [µg/mL]
"O=C1Cc2cc(CCN3CCN(c4nsc5ccccc45)CC3)c(Cl)cc2N1 [Ziprasidone hydrochloride monohydrate, reference compound]",release crystal water,30,–,–
"O.O.O=C1Cc2cc(CCN3CCN(c4nsc5ccccc45)CC3)c(Cl)cc2N1.O=S(=O)(O)O [Ziprasidone hydrogensulfate dihydrate, 5-[2-[4-(1,2-benzisothiazol-3-yl) -1-piperazinyl]ethyl] -6-chloro-1,3-dihydro-2H-indol-2-one hydrogensulfate dihydrate]",does not release crystal water,50,more stable to hydratation,360
